Data set [1] concerns the target T1, human AHR (Homo sapiens, UniProt P35869).
T1 sequence (P35869 11-848): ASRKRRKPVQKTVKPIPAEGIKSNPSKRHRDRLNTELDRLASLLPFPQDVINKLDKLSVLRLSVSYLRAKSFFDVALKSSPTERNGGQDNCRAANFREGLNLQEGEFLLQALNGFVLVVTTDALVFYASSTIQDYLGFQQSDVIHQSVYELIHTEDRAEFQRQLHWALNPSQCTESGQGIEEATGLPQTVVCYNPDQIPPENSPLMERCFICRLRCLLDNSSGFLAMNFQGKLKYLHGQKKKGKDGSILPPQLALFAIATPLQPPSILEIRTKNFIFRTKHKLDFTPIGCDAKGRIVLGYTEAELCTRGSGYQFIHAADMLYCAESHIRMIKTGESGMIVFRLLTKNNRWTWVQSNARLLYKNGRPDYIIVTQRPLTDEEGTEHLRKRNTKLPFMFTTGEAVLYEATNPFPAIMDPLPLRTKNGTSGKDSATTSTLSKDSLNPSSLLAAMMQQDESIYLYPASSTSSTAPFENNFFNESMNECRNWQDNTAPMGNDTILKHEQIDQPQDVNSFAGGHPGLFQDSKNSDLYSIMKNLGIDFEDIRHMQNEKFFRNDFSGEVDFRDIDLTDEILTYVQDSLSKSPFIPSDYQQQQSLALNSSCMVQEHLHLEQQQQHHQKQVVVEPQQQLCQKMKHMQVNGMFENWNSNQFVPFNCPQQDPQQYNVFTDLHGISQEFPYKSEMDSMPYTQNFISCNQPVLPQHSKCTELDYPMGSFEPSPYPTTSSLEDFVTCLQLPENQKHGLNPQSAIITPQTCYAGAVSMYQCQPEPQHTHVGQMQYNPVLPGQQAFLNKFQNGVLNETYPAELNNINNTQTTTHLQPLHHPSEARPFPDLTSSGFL
As to conditions: Mezrich et al. 2012; cited from earlier work.

In data set [2] the test system is AhR target genes CYP1A1, CYP1B1 and AHRR. Put plainly: AhR target gene expression by q-RT-PCR in AML cells. Type of data set: cell-based, human. As to conditions: SR1 500 nM; TCDD 0.1, 1, 10 nM; n=13 samples. The source says: RNA was isolated from primary AML samples using Trizol® reagent according to the manufacturer's instructions (Invitrogen/Life Technologies) and reverse transcribed into cDNA using MMLV reverse transcriptase and random primers. 2× Fast Master Mix® containing primers described below and probes from the Universal Probe Library® (Roche Diagnostics) were used for q-RT-PCR reactions which were amplified in 2-3 technical replicates on an ABI 7900HT Fast Real-Time® PCR System (Applied Biosystems/Life Technologies). Analysis was done with SDS 2.2.2 software (Applied Biosystems/Life Technologies) using the comparative delta CT method with GAPDH as reference gene. The following primers and probes were used: GAPDH: 5′-[…]-3′ (forward, SEQ ID NO:7), 5′-[…]-3′ (reverse, SEQ ID NO:8), probe 60, CYP1A1: 5′-[…]-3′ (forward, SEQ ID NO:9), 5′-[…]-3′ (reverse, SEQ ID NO:10), probe 59, CYP1B1: 5′-[…]-3′ (forward, SEQ ID NO:11), 5′-[…]-3′ (reverse, SEQ ID NO:12), probe 20, AHRR: 5′-[…]-3′ (forward, SEQ ID NO:13), 5′-[…]-3′ (reverse, SEQ ID NO:14), probe 72, AHR: 5′-[…]-3′ (forward, SEQ ID NO:15), 5′-[…]-3′ (reverse, SEQ ID NO:16), probe 33.

Data set [3] deals with primary human AML cells. The data set can be described thus: Secondary screen: dose response, five serial dilutions (CD34/CD15 flow cytometry). The format is cell-based. The arrangement: key to 2ndary screen criteria fulfilled: 0 = no; 1 = yes. As to conditions: for 2ndary screen criteria fulfilled: ≧50% increase CD34+CD15− (%) and cell counts and ≧50% gated cells in at least one dose.
Experimental: In the primary screen cells were plated in transparent 384-wellplates (Greiner, 781182) at a density of 5,000 cells in 50 μl final volume per well. Compounds were tested at 2 μM (commercial libraries) or 1 μg/ml (Medicinal Chemistry Facility, IRIC). […] For validation experiments AML cells were grown in 384-well plates with 3-8 replicates per condition.
Flow cytometry was performed on an LSR™ II cytometer equipped with an HTS-device (BD Bioscience, Primary and Secondary screens and in vitro validation experiments) or on a BD Canto™ II cytometer (BD Bioscience, Xenotransplantation and CellTrace Violet™ experiments). Cells were stained for 30 minutes at 4° C. protected from light if not otherwise indicated (CellTrace Violet™ staining). The following flow cytometry-antibodies were used: CD45 Pacific Blue (BioLegend 304029), CD33 PE (BD Bioscience 555450), CD34 APC (BD Bioscience 555824), CD3 FITC (BD Bioscience 555332), CD19 PE-Cy7 (BD Bioscience 557835), CD15 PE (BD Bioscience 555401), and anti-mouse CD45.1 APC-efluor 730 (eBioscience 47-0453-82). CD34 intensities in flow cytometry plots were set at high levels on day 0 to allow tracing of non-predictable decreases of intensities during 7 days in culture.

The subject of data set [4] is primary human AML specimens. The data set can be described thus: Validation: 7-day serum-free culture of diverse AML specimens (CD34+CD15− cells). Particulars: 7-day culture; for impact on CD34+CD15− cell numbers: vs DMSO, P<0.0001 paired t-test; for median CD34+CD15− percentage relative to uncultured cells: SR1 0.75-1 μM, C05 2 μM, DMSO 19% / 22%. Type of data set: cell-based. Here is the method: The following flow cytometry-antibodies were used: […] Statistical analyses of all in vitro experiments were done using Graphpad Prism v 6.01. […] Normalized CD34^+CD15^- percentages (td7/t0) were analyzed by Wilcoxon matched pairs signed rank test. Bars and error bars represent means and standard deviations (SD), or standard errors of the mean (SEM), as specified. Extreme limiting dilution analysis software (Hu, […]: extreme limiting dilution analysis for comparing depleted and enriched populations in stem cell and other assays. Journal of immunological methods 347, 70-78 (2009); http://bioinf.wehi.edu.au/software/elda/) was used to estimate LSC frequencies with 95% confidence intervals. In cases where all mice were positive or negative, one-sided confidence intervals were calculated. Differences in LSC frequencies between culture conditions were analyzed by Chi-square test.

The subject of data set [5] is primary human AML cells. The data set can be described thus: Primary screen: differentiation of primary human AML cells in vitro (CD34/CD15, HTS flow cytometry). Particulars: for percent gated cells (viability): 2 μM (commercial libraries) or 1 μg/ml (IRIC); for % increase CD34+ (%) / % increase CD34+ (cell counts) / % increase CD34+CD15− (cell counts): compared to DMSO; for % increase CD34+CD15− (%): compared to DMSO ((compound − DMSO)/DMSO*100).
Experimental: AML cells were thawed in 37° C. water bath and 1:10 diluted in prewarmed Iscove's modified Dulbecco's medium (IMDM) containing 20% FBS and DNase 100 μg/ml. […] When compounds were added to the culture medium, final DMSO concentrations were 0.1% in all in vitro experiments and 0.01% when cultured cells were transplanted into NSG-mice.
Compounds were tested at 2 μM (commercial libraries) or 1 μg/ml (Medicinal Chemistry Facility, IRIC). […] For validation experiments AML cells were grown in 384-well plates with 3-8 replicates per condition.
Flow cytometry was performed on an LSR™ II cytometer equipped with an HTS-device (BD Bioscience, Primary and Secondary screens and in vitro validation experiments) or on a BD Canto™ II cytometer (BD Bioscience, Xenotransplantation and CellTrace Violet™ experiments). Cells were stained for 30 minutes at 4° C. protected from light if not otherwise indicated (CellTrace Violet™ staining). […] CD34 intensities in flow cytometry plots were set at high levels on day 0 to allow tracing of non-predictable decreases of intensities during 7 days in culture.

Data set [6] relates to AML cells (04H112). The data set can be described thus: Cell proliferation assay (CellTrace Violet). The format is cell-based, human. Particulars: 4-day culture; SR1 500 nM, UM729 1 μM. Here is the method: CellTrace™ Violet (Invitrogen/Life Technologies C34557) was added at a final concentration of 3 μM to cell suspensions (10^7 cells/ml) containing SR1 (500 nM), UM729 (1 μM), both compounds, or vehicle DMSO (0.1%). CellTrace™ Violet labeled cells were stained with surface antibodies against human CD3, CD19, CD34, and CD33 on day 0, day 2, and day 4 prior to analysis on a BD Canto™ II flow cytometer. Data were analyzed using FlowJo™ version 7.6.5.

For data set [7], the system named is leukemia stem cells (LSC) of primary human AML samples. Put plainly: Xenotransplantation of 4-day cultured AML cells into NSG mice (engraftment, LSC frequency). Type of data set: in vivo. The source says:
NOD.Cg-Prkdc^scid II2rg^tm1Wjl/SzJ (NSG) mice were purchased from Jackson Laboratory® (Bar Harbor, Me.) and bred in a pathogen-free animal facility. All AML samples were transplanted via the tail vein into 8-12 week old sublethally irradiated (250 cGy, ^137Cs-gamma source) NSG mice. […] On day 4, equivalents of the three highest to cell doses from each of the 3-4 flasks per condition were transplanted. The technician injecting fresh and cultured cells in NSG mice was not informed about the experimental conditions. […] On average 150,000 gated events were acquired. Mice were considered positive if human cells represented >1% of the bone marrow cell population. Mice were excluded only in case of obvious non-leukemia related death (e.g. first two weeks after irradiation). To discriminate between engraftment of leukemic and normal cells present in unsorted patient samples only recipients with proportions of CD45^+CD33^+ or CD45^+CD34^+ cells higher than proportions of CD19^+CD33^- or CD3^+ were considered to harbor cells of leukemic origin. Statistical analyses of all in vitro experiments were done using Graphpad Prism v 6.01. […] Normalized CD34^+CD15^- percentages (td7/t0) were analyzed by Wilcoxon matched pairs signed rank test. Bars and error bars represent means and standard deviations (SD), or standard errors of the mean (SEM), as specified. Extreme limiting dilution analysis software (Hu, […]: extreme limiting dilution analysis for comparing depleted and enriched populations in stem cell and other assays. Journal of immunological methods 347, 70-78 (2009); http://bioinf.wehi.edu.au/software/elda/) was used to estimate LSC frequencies with 95% confidence intervals. In cases where all mice were positive or negative, one-sided confidence intervals were calculated. Differences in LSC frequencies between culture conditions were analyzed by Chi-square test.

Where [8] appears, read: at optimal concentration, compared to DMSO.

Here are results for seven compounds from US9757378B2, “Methods to modulate acute myeloid leukemia stem/progenitor cell expansion and/or differentiation” (UNIVERSITE DE MONTREAL, priority 2013, dated 2017).

“Also recorded” adds a separate entry of the source.

For the compound `Cc1cc(C)c(/C=C2\C(=O)Nc3ccccc32)[nH]1` [SU5416, 3-(3,5-dimethyl-1H-pyrrol-2-ylmethylene)-1,3-dihydro-indole-2-one], the “activation of the human AHR” value in data set [1] was “potency approaching TCDD”.
For the compound `Clc1cc2c(cc1Cl)Oc1cc(Cl)c(Cl)cc1O2` [TCDD, 2,3,7,8-Tetrachlorodibenzodioxin], the “upregulation of AhR target genes AHRR and CYP1A1 upon 24 h in vitro culture” value in data set [2] is given as “marginally further induced”.
Take `CNC(=O)c1cc2c(cn1)[nH]c1ccccc12` [UM0119840, N-Methyl-beta-carboline-3-carboxamide]: in data set [3] (setting [8]), the “% increase CD34+CD15− (%) 2ndary screen” value came to 172.95% and the “% increase CD34+CD15− (cell counts) 2ndary screen” value came to 252.10%. For the same compound, the “CD34+CD15− cell counts in secondary screenings (ranking)” value in data set [3] (in words) is given as “highest”. Besides, the “2ndary screen criteria fulfilled” value in data set [3] is 1. In data set [4], the “impact on CD34+CD15− cell numbers” value was “significant impact” and the “median CD34+CD15− percentage relative to uncultured cells” value was found to be 56%. In data set [5], the “percent gated cells (viability)” value is given as 86.20%, the “% increase CD34+ (%)” value stood at 31.60%, the “% increase CD34+ (cell counts)” value was 37.57% and the “% increase CD34+CD15− (cell counts)” value is recorded as 85.11%. In addition, in data set [5], the “% increase CD34+CD15− (%)” value was determined as 76.94%.
On to `COc1cc(-c2oc3cc(O)cc(O)c3c(=O)c2O)ccc1O` [UM0119319, Isorhamnetine], for which the “2ndary screen criteria fulfilled” value in data set [3] is recorded as 0. Besides, in data set [5], the “% increase CD34+ (%)” value came to 37.41%, the “% increase CD34+ (cell counts)” value came out at 28.67%, the “% increase CD34+CD15− (cell counts)” value came out at 62.94% and the “% increase CD34+CD15− (%)” value is recorded as 74.28%.
Take `O=c1c(O)c(-c2ccc(O)cc2)oc2cc(O)cc(O)c12` [UM0118952, Kaempferol]: the “2ndary screen criteria fulfilled” value in data set [3] was determined as 0. In addition, in data set [5], the “percent gated cells (viability)” value came to 78.90%, the “% increase CD34+ (%)” value is on record as 26.34%, the “% increase CD34+ (cell counts)” value was −2.29% and the “% increase CD34+CD15− (cell counts)” value is 44.57%. In data set [5], the “% increase CD34+CD15− (%)” value was 87.18%.
For `CC(C)n1cnc2c(NCCc3ccc(O)cc3)nc(-c3csc4ccccc34)nc21` [SR1, StemRegenin 1], the “upregulation of AhR target genes AHRR and CYP1A1 upon 24 h in vitro culture” value in data set [2] is “effectively antagonized”. In addition, the “samples with net expansion of CD34+CD15− cells” value in data set [4] (compared to input) is on record as 15/16. Also, the “increase in CD34+CD15− cell numbers” value in data set [4] (maximum (AML 08H112)) is recorded as “up to 42 fold”. In data set [4], the “impact on CD34+CD15− cell numbers” value was “significant impact” and the “median CD34+CD15− percentage relative to uncultured cells” value is listed as 72%. The “preventing AML cell differentiation in vitro, compound alone” value in data set [4] (17 AML specimens, UM729 1 μM) is “superior to UM729”. The “distribution of cell generations / number of early cell divisions” value in data set [6] is “no difference”. Also, the “total viable cells per flask (median±SD) following 4-day culture” value in data set [7] (cultures before transplantation, DMSO 6.2±3×10^6) is reported as 4.8±2×10^6. The “engraftment (average)” value in data set [7] (sample 05H163, progeny of 2×10^6 input cells, SR1-supplemented culture) came out at 50%. Further, in data set [7] (six samples, engraftment in NSG mice), the “supporting LSC functional activity, SR1 alone versus UM729 alone” value was “superior to UM729 in supporting LSC functional activity in four of six samples; also recorded: equally efficacious in two samples”. In addition, in data set [7] (six samples, 4-day culture with SR1 0.5-1 μM, NSG mice), the “engraftment levels compared to control DMSO” value was “higher engraftment levels”.
In the case of `O=c1c2ccccc2oc2ccccc12` [UM0120986, Xanthone], in data set [3], the “2ndary screen criteria fulfilled” value was found to be 0. In addition, in data set [5], the “percent gated cells (viability)” value is listed as 81.40%, the “% increase CD34+ (%)” value turned out to be 34.82%, the “% increase CD34+ (cell counts)” value is recorded as 28.81% and the “% increase CD34+CD15− (cell counts)” value was 86.26%. Besides, in data set [5], the “% increase CD34+CD15− (%)” value is on record as 94.85%.
